The target in one assay is BCL2 WT (Homo sapiens (Human), UniProt P10415). In words: TR-FRET competitive binding assay, BCL2 WT. The conditions noted are these: Ki determined from IC50, read-out: TR_FRET EKI_Bcl2 WT. In short, it runs like this:
(§1)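 Competitive TR-FRET displacement of fluorescein-PUMA peptide (2 or 20 nM) from 0.5 nM terbium-labelled N-terminal Halo-fusion BCL2 (1-207, wild type or mutant) or BCLXL (2-196), expressed in E. coli. Buffer 50 mM Hepes pH 7.5, 150 mM NaCl, 5% DMSO; 2 h at 23°C. 520/495 nm ratio fitted over 11 points for IC50, converted to Ki.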
For orientation: Time-resolved FRET reads energy transfer from a long-lived donor to a nearby acceptor.

Assay [1] addresses BCL2 G101V (Homo sapiens, UniProt P10415, G101V). In words: TR-FRET competitive binding assay, BCL2 G101V. The following applies: BCL2 G101V; Ki determined from IC50; read-out: TR_FRET EKI_Bcl2 G101V. The essentials: as §1
For assay [2], the system named is BCL2 G101V. The experiment in a line: TR-FRET competitive binding assay, BCL2 G101V. Also on record: species or system human. The following applies: ratio Ki BCL2 G101V / Ki BCL2 WT. In short, it runs like this:
as §1

Another assay deals with BCL2 D103Y (Homo sapiens, UniProt P10415, D103Y). The experiment in a line: TR-FRET competitive binding assay, BCL2 D103Y. The conditions noted are these: Ki determined from IC50, read-out: TR_FRET EKI_Bcl2 D103Y. In short, it runs like this: as §1
The target of a further assay is BCLXL WT (Homo sapiens (Human), UniProt Q07817). In words: TR-FRET competitive binding assay, BCLXL WT. The conditions noted are these: for Ki: BCLXL WT, Ki determined from IC50, read-out: TR_FRET EKI BclxL; for TR_FRET EKI BCLxL/WT selectivty ratio: ratio Ki BCLxL / Ki BCL2 WT. The essentials: as §1
Another assay has as its system KMS-12-PE Bcl-2 WT. In words: In vitro cytotoxicity CellTiter-Glo 48 h, KMS-12-PE Bcl-2 WT. The following applies: Homo sapiens, KMS-12-PE, C50 = concentration needed to reach 50% of the cellular viability. The class given is cell-based. In short, it runs like this:
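KMS-12-PE myeloma cells were lentivirally transduced with wild-type or G101V-mutant Bcl-2 and sorted by TagRFP. They were exposed to compounds as 11-point dose responses for 48 h at 37 °C, 5% CO2. Viability was read by CellTiter-Glo ATP luminescence, and C50 was the concentration giving 50% viability.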

Sequence of BCLXL WT (Q07817 other isoform, or with tags, fused parts or gaps): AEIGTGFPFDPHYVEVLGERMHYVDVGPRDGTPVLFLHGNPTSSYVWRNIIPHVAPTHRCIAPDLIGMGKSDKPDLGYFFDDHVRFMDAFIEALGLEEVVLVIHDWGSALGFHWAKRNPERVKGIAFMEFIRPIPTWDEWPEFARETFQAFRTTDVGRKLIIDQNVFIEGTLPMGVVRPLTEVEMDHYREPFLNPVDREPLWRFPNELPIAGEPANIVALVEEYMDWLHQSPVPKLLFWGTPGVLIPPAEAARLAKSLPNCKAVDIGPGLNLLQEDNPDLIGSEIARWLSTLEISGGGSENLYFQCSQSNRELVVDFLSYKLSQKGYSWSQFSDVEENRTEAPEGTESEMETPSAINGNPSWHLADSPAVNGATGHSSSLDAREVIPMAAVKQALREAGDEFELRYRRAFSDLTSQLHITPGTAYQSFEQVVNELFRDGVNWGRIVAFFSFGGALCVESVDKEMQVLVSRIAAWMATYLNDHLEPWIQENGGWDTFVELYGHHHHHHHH

Take `Cc1c(C(=O)N(c2ccccc2)c2cnn(C(F)F)c2)cc(-c2cc3c(cc2C(=O)N2Cc4ccccc4C[C@H]2C)CN(C(=O)Cc2ccc(OCCN4CCOCC4)cc2)CC3)n1C` [Example 190, N-[1-(difluoromethyl)pyrazol-4-yl]-1,2-dimethyl-5-[7-[(3R)-3-methyl-3,4-dihydro-1H-isoquinoline-2-carbonyl]-2-[2-[4-(2-morpholinoethoxy)phenyl]acetyl]-3,4-dihydro-1H-isoquinolin-6-yl]-N-phenyl-pyrrole-3-carboxamide]: the Ki at BCL2 WT is 0.05 nM; at BCL2 G101V [1] it was 3.6 nM; at BCL2 D103Y it was 0.12 nM; on BCLXL WT it was 16.8 nM. In addition, the “TR_FRET EKI G101V/WT selectivty ratio” value in the assay on BCL2 G101V [2] is 73.4. The “TR_FRET EKI BCLxL/WT selectivty ratio” value on BCLXL WT was 342.7. For the same compound, the IC50 – broadly, the midpoint of a concentration-inhibition curve – in the assay with KMS-12-PE Bcl-2 WT was 0.0077 µM.
With `COc1ccc(N(C(=O)c2cc(-c3cc4c(cc3C(=O)N3Cc5ccccc5C[C@H]3C)CN(C(=O)Cc3ccc(OCCN5CCOCC5)cc3)CC4)n(C)c2C)c2ccccc2)cn1` [Example 191, N-(6-methoxy-3-pyridyl)-1,2-dimethyl-5-[7-[(3R)-3-methyl-3,4-dihydro-1H-isoquinoline-2-carbonyl]-2-[2-[4-(2-morpholinoethoxy)phenyl]acetyl]-3,4-dihydro-1H-isoquinolin-6-yl]-N-phenyl-pyrrole-3-carboxamide], the Ki on BCL2 WT is 0.04 nM; at BCL2 G101V [1], 2.4 nM; on BCL2 D103Y it was 0.07 nM; on BCLXL WT, 9.5 nM. Also, in the assay with BCL2 G101V [2], the “TR_FRET EKI G101V/WT selectivty ratio” value came to 65.3. Also, the “TR_FRET EKI BCLxL/WT selectivty ratio” value on BCLXL WT was found to be 264.0. This compound also displayed an IC50 in the assay on KMS-12-PE Bcl-2 WT of 0.0131 µM.
In the case of `COc1ccc(N(C(=O)c2cc(-c3cc4c(cc3C(=O)N3Cc5ccccc5C[C@H]3C)CN(C(=O)Cc3ccc(OCCN5CCOCC5)cc3F)CC4)n(C)c2C)c2ccccc2)cn1` [Example 192, 5-[2-[2-[2-fluoro-4-(2-morpholinoethoxy)phenyl]acetyl]-7-[(3R)-3-methyl-3,4-dihydro-1H-isoquinoline-2-carbonyl]-3,4-dihydro-1H-isoquinolin-6-yl]-N-(6-methoxy-3-pyridyl)-1,2-dimethyl-N-phenyl-pyrrole-3-carboxamide], the Ki on BCL2 WT was determined as 0.04 nM; at BCL2 G101V [1], 2.6 nM; on BCL2 D103Y it was 0.11 nM; at BCLXL WT, 7.7 nM. In the assay on BCL2 G101V [2], the “TR_FRET EKI G101V/WT selectivty ratio” value turned out to be 58.9. Moreover, the “TR_FRET EKI BCLxL/WT selectivty ratio” value on BCLXL WT was 175.0. In addition, the IC50 in the assay with KMS-12-PE Bcl-2 WT was determined as 0.0083 µM.
Regarding `Cc1c(C(=O)N(c2ccccc2)c2cnn(C(F)F)c2)cc(-c2cc3c(cc2C(=O)N2Cc4ccccc4C[C@H]2C)CN(C(=O)Cc2ccc(OCCN4CCOCC4)cc2F)CC3)n1C` [Example 193, N-[1-(difluoromethyl)pyrazol-4-yl]-5-[2-[2-[2-fluoro-4-(2-morpholinoethoxy)phenyl]acetyl]-7-[(3R)-3-methyl-3,4-dihydro-1H-isoquinoline-2-carbonyl]-3,4-dihydro-1H-isoquinolin-6-yl]-1,2-dimethyl-N-phenyl-pyrrole-3-carboxamide], the Ki at BCL2 WT came to 0.04 nM; at BCL2 G101V [1], 3.1 nM; at BCL2 D103Y, 0.1 nM; at BCLXL WT it was 11 nM. The “TR_FRET EKI G101V/WT selectivty ratio” value in the assay with BCL2 G101V [2] came to 72.0. Besides, the “TR_FRET EKI BCLxL/WT selectivty ratio” value on BCLXL WT was 256.9. This compound also came in with an IC50 with KMS-12-PE Bcl-2 WT of 0.0062 µM.
`Cc1c(C(=O)N(c2ccccc2)c2cnc3c(cnn3C)c2)cc(-c2cc3c(cc2C(=O)N2Cc4ccccc4C[C@H]2C)CN(C(=O)Cc2ccc(OCCN4CCOCC4)cc2F)CC3)n1C` [Example 194, 5-[2-[2-[2-fluoro-4-(2-morpholinoethoxy)phenyl]acetyl]-7-[(3R)-3-methyl-3,4-dihydro-1H-isoquinoline-2-carbonyl]-3,4-dihydro-1H-isoquinolin-6-yl]-1,2-dimethyl-N-(1-methylpyrazolo[3,4-b]pyridin-5-yl)-N-phenyl-pyrrole-3-carboxamide]: the Ki stood at 0.03 nM at BCL2 WT, 1 nM on BCL2 G101V [1], 0.08 nM on BCL2 D103Y and 3.3 nM on BCLXL WT. Further, the “TR_FRET EKI G101V/WT selectivty ratio” value in the assay with BCL2 G101V [2] amounted to 35.7. Besides, at BCLXL WT, the “TR_FRET EKI BCLxL/WT selectivty ratio” value was 115.0. Further, in the assay on KMS-12-PE Bcl-2 WT, the IC50 worked out at 0.0026 µM.
On to `Cc1c(C(=O)N(c2ccccc2)c2cnc3c(cnn3C)c2)cc(-c2cc3c(cc2C(=O)N2Cc4ccccc4C[C@H]2C)CN(C(=O)Cc2ccc(OCCN4CCOCC4)cc2)CC3)n1C` [Example 195, 1,2-dimethyl-5-[7-[(3R)-3-methyl-3,4-dihydro-1H-isoquinoline-2-carbonyl]-2-[2-[4-(2-morpholinoethoxy)phenyl]acetyl]-3,4-dihydro-1H-isoquinolin-6-yl]-N-(1-methylpyrazolo[3,4-b]pyridin-5-yl)-N-phenyl-pyrrole-3-carboxamide], for which the Ki on BCL2 WT worked out at 0.014 nM; at BCL2 G101V [1] it was 0.9 nM; at BCL2 D103Y, 0.05 nM; at BCLXL WT, 5 nM. Also, the “TR_FRET EKI G101V/WT selectivty ratio” value in the assay on BCL2 G101V [2] is on record as 63.6. On BCLXL WT, the “TR_FRET EKI BCLxL/WT selectivty ratio” value is reported as 359.1. The compound also displayed an IC50 in the assay on KMS-12-PE Bcl-2 WT of 0.0041 µM.
Consider `COCCn1cc(N(C(=O)c2cc(-c3cc4c(cc3C(=O)N3Cc5ccccc5C[C@H]3C)CN(C(=O)Cc3ccc(OCCN5CCOCC5)cc3)CC4)n(C)c2C)c2ccccc2)cn1` [Example 196, N-[1-(2-methoxyethyl)pyrazol-4-yl]-1,2-dimethyl-5-[7-[(3R)-3-methyl-3,4-dihydro-1H-isoquinoline-2-carbonyl]-2-[2-[4-(2-morpholinoethoxy)phenyl]acetyl]-3,4-dihydro-1H-isoquinolin-6-yl]-N-phenyl-pyrrole-3-carboxamide], for which the Ki was found to be 0.03 nM at BCL2 WT, 2.7 nM at BCL2 G101V [1], 0.09 nM on BCL2 D103Y and 9.6 nM at BCLXL WT. Also, in the assay on BCL2 G101V [2], the “TR_FRET EKI G101V/WT selectivty ratio” value was 83.2. For the same compound, the “TR_FRET EKI BCLxL/WT selectivty ratio” value at BCLXL WT is given as 301.1. In addition, the IC50 in the assay with KMS-12-PE Bcl-2 WT was found to be 0.0089 µM.
Take `Cc1c(C(=O)N(c2ccccc2)c2cnn(C)c2)cc(-c2cc3c(cc2C(=O)N2Cc4ccccc4C[C@H]2C)CN(C(=O)Cc2ccc(OCCN4CCOCC4)cc2F)CC3)n1C` [Example 197, 5-[2-[2-[2-fluoro-4-(2-morpholinoethoxy)phenyl]acetyl]-7-[(3R)-3-methyl-3,4-dihydro-1H-isoquinoline-2-carbonyl]-3,4-dihydro-1H-isoquinolin-6-yl]-1,2-dimethyl-N-(1-methylpyrazol-4-yl)-N-phenyl-pyrrole-3-carboxamide]: the Ki turned out to be 0.02 nM on BCL2 WT, 1.2 nM on BCL2 G101V [1], 0.05 nM at BCL2 D103Y and 9.9 nM at BCLXL WT. The “TR_FRET EKI G101V/WT selectivty ratio” value in the assay on BCL2 G101V [2] turned out to be 63.9. Also, the “TR_FRET EKI BCLxL/WT selectivty ratio” value on BCLXL WT was determined as 523.3. The IC50 in the assay with KMS-12-PE Bcl-2 WT was determined as 0.0023 µM.
Take `Cc1c(C(=O)N(c2ccc(F)cc2)c2cnn(C)c2)cc(-c2cc3c(cc2C(=O)N2Cc4ccccc4C[C@H]2C)CN(C(=O)Cc2ccc(OCCN4CCOCC4)cc2)CC3)n1C` [Example 200, N-(4-fluorophenyl)-1,2-dimethyl-5-[7-[(3R)-3-methyl-3,4-dihydro-1H-isoquinoline-2-carbonyl]-2-[2-[4-(2-morpholinoethoxy)phenyl]acetyl]-3,4-dihydro-1H-isoquinolin-6-yl]-N-(1-methylpyrazol-4-yl)pyrrole-3-carboxamide]: the Ki at BCL2 WT is 0.06 nM; on BCL2 G101V [1], 5.5 nM; at BCL2 D103Y, 0.15 nM; at BCLXL WT it was 26 nM. Besides, the “TR_FRET EKI G101V/WT selectivty ratio” value in the assay on BCL2 G101V [2] was 88.0. Also, the “TR_FRET EKI BCLxL/WT selectivty ratio” value on BCLXL WT was 419.8. This compound also gave an IC50 in the assay with KMS-12-PE Bcl-2 WT of 0.0155 µM.
Turning to `COc1ncc(N(C(=O)c2cc(-c3cc4c(cc3C(=O)N3Cc5ccccc5C[C@H]3C)CN(C(=O)Cc3ccc(OCCN5CCOCC5)cc3F)CC4)n(C)c2C)c2ccccc2)cc1C#N` [Example 202, N-(5-cyano-6-methoxy-3-pyridyl)-5-[2-[2-[2-fluoro-4-(2-morpholinoethoxy)phenyl]acetyl]-7-[(3R)-3-methyl-3,4-dihydro-1H-isoquinoline-2-carbonyl]-3,4-dihydro-1H-isoquinolin-6-yl]-1,2-dimethyl-N-phenyl-pyrrole-3-carboxamide], the Ki came to 0.05 nM at BCL2 WT, 1.2 nM on BCL2 G101V [1], 0.11 nM at BCL2 D103Y and 10.9 nM at BCLXL WT. Besides, the “TR_FRET EKI G101V/WT selectivty ratio” value in the assay with BCL2 G101V [2] is recorded as 22.9. Moreover, the “TR_FRET EKI BCLxL/WT selectivty ratio” value on BCLXL WT is given as 214.7. In the assay with KMS-12-PE Bcl-2 WT, this compound displayed an IC50 of 0.0256 µM.

(Values after US20250179047A1, “5-[7-(3,4-DIHYDRO-1H-ISOQUINOLINE-2-CARBONYL)-1,2,3,4 TETRAHYDROISOQUINOLIN-6-YL]-1H-PYRROLE-3-CARBOXAMIDE DERIVATIVES, PHARMACEUTICAL COMPOSITIONS CONTAINING THEM AND THEIR USES AS PRO-APOPTOTIC AGENTS” (LES LABORATOIRES SERVIER, priority 2022, published 2025).)
